Experiments:
BTK [1] = biological target: T1, BTK (Homo sapiens, UniProt Q06187); experiment: Assay to determine BTK inactivation rate (active site probe ELISA, human whole blood); format: cell-based; parameters: tissue StemExpress; host or cells: human whole blood; details: 37° C., 5-60 minutes, read-out: BTK hWB (Kinact/Ki)
Procedure: This example employed a BTK active site probe-based assay using a biotinylated covalent inhibitor in human and mouse blood or mouse brain lysate.
Human whole blood was obtained from StemExpress (Stockton, CA) and kept at ambient temperature until the time of the experiment, which was approximately 24 hours after it had been collected. • 1. A 1× lysis buffer was prepared by using 10× lysis buffer (Cell Signaling Technology, #9083S, Danvers, MA), molecular biology grade water, 100× Halt Protease and Phosphatase Inhibitor Cocktail, (ThermoFisher, #78440, Waltham, MA), and BTK active site probe (final: 0.4 μM). This was prepared fresh each experimental day. • 2. Lysis buffer was added in the volume of 30 μL to all wells in a V-bottom plate (Greiner Bio-One, #651261, Monroe, NC) in preparation for timepoint collections. • 3. Compounds were reconstituted to stocks of 10 mM in 100% DMSO and were diluted in 2-fold serial dilutions to generate an 8-point curve in DMSO, with the last point being DMSO only. • 4. A working 10× dilution series was created using 1 μL of the prepared DMSO titration into […] 1×PBS in order to keep the DMSO constant (0.03% DMSO final). • 5. The whole blood was added in the volume of 225 μL per well in a new 96 w v-bottom plate. • 6. For compound treatment, 25 μL of the 10× dilution series in PBS was added to the 225 μL whole blood, followed by briefly pipetting up and down, twice. • 7. The plates were then covered with plastic lids and incubated at 37° C. for 5, 10, 15, 30, 60 minutes. • 8. At each timepoint, 30 μL of compound- or DMSO (vehicle)-treated blood is pulled from each column and added to preloaded collection plates that contained 30 μL of lysis buffer supplemented with BTK active site probe. Samples were then mixed briefly by pipetting up and down, twice. • 9. The plates with collected and lysed samples were shaken and covered with sealing film on a rotator for 60 minutes at room temperature. These samples were used fresh for detection via ELISA, and remaining sample was frozen at −80° C. if a repeat was necessary. Determining Amount of Unoccupied BTK Using ELISA • 1. All streptavidin pre-coated plates (R&D Systems, #CP004, Minneapolis, MN) were brought to room temperature while samples are lysing. • 2. Assay Buffer 1, 1×PBS+0.05% Tween 20+1% BSA was prepared, filtered, and stored at 4° C. when not in use. • 3. Using this Assay Buffer 1, assay buffer+1× protease/phosphatase inhibitor cocktail (PICS) was prepared in the amount needed for all samples. • 4. Assay Buffer+PICS in the volume of 90 μL/well was added to the ELISA plate for blood samples. • 5. Assay Buffer+PICs in the volume of 50 μL/well was added to the ELISA plate for brain samples. • 6. Lysed blood sample (10 μL) was added to the ELISA plate. • 7. Lysed brain sample (50 μL) was added to the ELISA plate. • 8. Samples were loaded into the ELISA plate for a total of 100 μL/well, in duplicate, and remained in the plate, sealed, overnight at 4° C. • 9. The following day, the plate was washed three times with 1× Wash Buffer (1×PBS+0.05% Tween 20) at 250 μL/well using a plate washer. • 10. The plate was inverted to expel all fluid each time and blotted on clean paper towels to remove remaining liquid. • 11. Assay Buffer 2 was prepared (1×PBS+0.05% Tween 20+0.5% BSA) and kept at 4° C. when not in use. • 12. The primary antibody α-BTK (clone D3H5, Cell Signaling Technology #8547S Danvers, MA) was diluted 1:500 in Assay Buffer 2. • 13. Diluted a-BTK antibody was added at 100 μL/well. • 14. The plate was covered with adhesive film and incubated for 90 minutes at room temperature. • 15. The plate was washed three times with 1× Wash Buffer at 250 μL/well using a plate washer. • 16. The plate was inverted to expel all fluid each time and blotted on clean paper towels to remove remaining liquid. • 17. The detection antibody (Jackson Immuno Research, #711-005-152) was diluted 1:2,500 with Assay Buffer 2. • 18. The diluted antibody was added at 100 μL/well. • 19. […]

BTK [2] = biological target: T1, BTK; experiment: BTK IC50 (EZ reader kinase assay); format: biochemical; parameters: purchased Carna; details: ATP 1 mM, BTK 2 nM, 90 minutes at room temperature
Procedure: Solutions of compounds (test or control) in DMSO were prepared at the desired concentrations, and serially diluted to 11 concentrations by 3-fold dilution in 384pp-plate using TECAN EVO200. 20 nL of stock were transferred to 384 plate using Echo550. DMSO was used as vehicle control.
Two separate solutions were prepared—an ATP solution containing MgCl2 (10 mM), Brij-35 (0.01%), DTT (2 mM), BSA (0.05%), EGTA (1 mM), HEPE (pH7.5) (50 mM), FLPeptide (6 uM) and ATP (4 mM); and a BTK solution containing MgCl2 (10 mM), Brij-35 (0.01%), DTT (2 mM), BSA (0.05%), EGTA (1 mM), HEPE (pH7.5) (50 mM) and BTK (2.67 nM). (BTK was obtained from Carna; FLPeptide2 was obtained from PerkinElmer and Ibrutinib was obtained from Selleck.) 5 uL of ATP solution were added to each well, followed by addition of 15 uL of BTK solution to initiate the reaction. (Note the final volume of each well was 20 uL containing MgCl2 (10 mM), Brij-35 (0.01%), DTT (2 mM), BSA (0.05%), EGTA (1 mM), HEPE (pH7.5) (50 mM), FLPeptide (1.5 uM), ATP (1 mM) and BTK (2 nM). The plates were incubated at room temperature for 90 minutes and then stopping buffer added (75 uL, containing 0.5 M EDTA) to terminate the reaction. Samples from each well were analyzed using EZ reader.
The % remaining activity was calculated using read conversion ratio (CR) according to the equation: […]
XLFit (equation 201) was used to calculate IC50's by floating both bottom and top.
BTK IC50 values are provided in Table 5, for the compounds described in Examples 1-13, wherein: • “A” denotes an IC50<1 nM; • “B” denotes an IC50 1-10 nM; and • “C” denotes an IC50>10 nM.

T1 sequence (Q06187 whole entry): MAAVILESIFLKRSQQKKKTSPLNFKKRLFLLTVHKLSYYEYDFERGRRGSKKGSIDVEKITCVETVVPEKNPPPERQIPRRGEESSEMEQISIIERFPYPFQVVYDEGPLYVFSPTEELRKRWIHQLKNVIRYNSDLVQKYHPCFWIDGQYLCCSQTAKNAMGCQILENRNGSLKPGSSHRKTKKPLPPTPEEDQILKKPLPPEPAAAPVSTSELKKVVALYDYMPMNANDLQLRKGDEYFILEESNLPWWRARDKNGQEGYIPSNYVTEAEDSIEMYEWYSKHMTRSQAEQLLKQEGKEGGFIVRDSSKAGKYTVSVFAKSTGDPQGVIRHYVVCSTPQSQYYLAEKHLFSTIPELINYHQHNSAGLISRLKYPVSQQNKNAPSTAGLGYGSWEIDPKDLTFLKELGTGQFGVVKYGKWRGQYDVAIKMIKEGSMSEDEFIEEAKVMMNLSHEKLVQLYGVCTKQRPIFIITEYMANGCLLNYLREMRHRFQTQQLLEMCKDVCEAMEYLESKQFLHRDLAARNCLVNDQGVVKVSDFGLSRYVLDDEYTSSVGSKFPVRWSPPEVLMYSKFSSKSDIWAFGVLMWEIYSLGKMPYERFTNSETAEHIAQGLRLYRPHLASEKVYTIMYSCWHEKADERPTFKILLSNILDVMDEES

Compound | kinact/KI (BTK [1]) | IC50 (BTK [2])
CC#CC(=O)N[C@H]1CCC[C@H](c2c(F)cc(C(N)=O)c3[nH]c(C)c(Cl)c23)C1 [6-(1S,3S), 4-((1S,3S)-3-(but-2-ynamido)cyclohexyl)-3-chloro-5-fluoro-2-methyl-1H-indole-7-carboxamide] | 8330 to 16700 M⁻¹ s⁻¹ | 1 to 10 nM
CC#CC(=O)N[C@H]1CCC[C@H](c2c(F)cc(C(N)=O)c3[nH]c(C)c(C)c23)C1 [10-(1S,3S), 4-((1S,3S)-3-(but-2-ynamido)cyclohexyl)-5-fluoro-2,3-dimethyl-1H-indole-7-carboxamide] | < 8330 M⁻¹ s⁻¹ | 1 to 10 nM
CC#CC(=O)N[C@@H]1CCC[C@@H](c2c(F)c(F)c(C(N)=O)c3[nH]c(C)c(Cl)c23)C1 [11-(1R,3R), 4-[(1R,3R)-3-(but-2-ynoylamino)cyclohexyl]-3-chloro-5,6-difluoro-2-methyl-1H-indole-7-carboxamide] | < 8330 M⁻¹ s⁻¹ | 1 to 10 nM
CC#CC(=O)N[C@H]1CC[C@@H](c2c(F)cc(C(N)=O)c3[nH]c(C)c(C)c23)C1 [12-(1R,3S), 4-((1R,3S)-3-(but-2-ynamido)cyclopentyl)-5-fluoro-2,3-dimethyl-1H-indole-7-carboxamide] | < 8330 M⁻¹ s⁻¹ | 1 to 10 nM
CC#CC(=O)N[C@@H]1CCC[C@@H](c2c(F)c(F)c(C(N)=O)c3[nH]c(C)c(C#N)c23)C1 [Compound 7-(1R,3R), 4-((1R,3R)-3-(but-2-ynamido)cyclohexyl)-3-cyano-5,6-difluoro-2-methyl-1H-indole-7-carboxamide] | 8330 to 16700 M⁻¹ s⁻¹ | 1 to 10 nM
CC#CC(=O)N[C@H]1CCC[C@@H](c2c(F)c(F)c(C(N)=O)c3[nH]c(C)c(C#N)c23)C1 [Compound 7-(1R,3S), 4-((1R,3S)-3-(but-2-ynamido)cyclohexyl)-3-cyano-5,6-difluoro-2-methyl-1H-indole-7-carboxamide] | < 8330 M⁻¹ s⁻¹ | 1 to 10 nM
CC#CC(=O)N[C@H]1CCC[C@@H](c2c(F)c(F)c(C(N)=O)c3[nH]c(C)c(Cl)c23)C1 [Compound 11-(1R,3S), 4-((1R,3S)-3-(but-2-ynamido)cyclohexyl)-3-chloro-5,6-difluoro-2-methyl-1H-indole-7-carboxamide] | < 8330 M⁻¹ s⁻¹ | 1 to 10 nM
CC#CC(=O)N[C@@H]1CC[C@@H](c2c(F)cc(C(N)=O)c3[nH]c(C)c(C)c23)C1 [Compound 13-(1R,3R), 4-((1R,3R)-3-(but-2-ynamido)cyclopentyl)-5-fluoro-2,3-dimethyl-1H-indole-7-carboxamide] | < 8330 M⁻¹ s⁻¹ | 1 to 10 nM

More lines, now with the values ahead:

kinact/KI (BTK [1]) | IC50 (BTK [2]) | Compound
< 8330 M⁻¹ s⁻¹ | 1 to 10 nM | CC#CC(=O)N[C@@H]1CCC=C(c2c(F)cc(C(N)=O)c3[nH]c(C)c(Cl)c23)C1 [1A(R), (R)-4-(5-(but-2-ynamido)cyclohex-1-en-1-yl)-3-chloro-5-fluoro-2-methyl-1H-indole-7-carboxamide]
< 8330 M⁻¹ s⁻¹ | < 1 nM | CC#CC(=O)N[C@H]1CCC=C(c2c(F)cc(C(N)=O)c3[nH]c(C)c(Cl)c23)C1 [1A(S), (S)-4-(5-(but-2-ynamido)cyclohex-1-en-1-yl)-3-chloro-5-fluoro-2-methyl-1H-indole-7-carboxamide]
< 8330 M⁻¹ s⁻¹ | 1 to 10 nM | CC#CC(=O)N[C@@H]1CCC=C(c2c(F)c(F)c(C(N)=O)c3[nH]c(C)c(Cl)c23)C1 [2A(R), (R)-4-(5-(but-2-ynamido)cyclohex-1-en-1-yl)-3-chloro-5,6-difluoro-2-methyl-1H-indole-7-carboxamide]
> 16700 M⁻¹ s⁻¹ | < 1 nM | CC#CC(=O)N[C@H]1CCC=C(c2c(F)c(F)c(C(N)=O)c3[nH]c(C)c(Cl)c23)C1 [2A(S), (S)-4-(5-(but-2-ynamido)cyclohex-1-en-1-yl)-3-chloro-5,6-difluoro-2-methyl-1H-indole-7-carboxamide]
> 16700 M⁻¹ s⁻¹ | < 1 nM | CC#CC(=O)N[C@H]1CCC=C(c2c(F)cc(C(N)=O)c3[nH]c(C)c(C)c23)C1 [3A(S), (S)-4-(5-(but-2-ynamido)cyclohex-1-en-1-yl)-5-fluoro-2,3-dimethyl-1H-indole-7-carboxamide]
> 16700 M⁻¹ s⁻¹ | 1 to 10 nM | CC#CC(=O)N[C@@H]1C=C(c2c(F)cc(C(N)=O)c3[nH]c(C)c(C)c23)CCC1 [3B(S), (S)-4-(3-(but-2-ynamido)cyclohex-1-en-1-yl)-5-fluoro-2,3-dimethyl-1H-indole-7-carboxamide]
< 8330 M⁻¹ s⁻¹ | 1 to 10 nM | CC#CC(=O)N[C@@H]1C=C(c2c(F)cc(C(N)=O)c3[nH]c(C)c(Cl)c23)CCC1 [5B(S), (S)-4-(3-(but-2-ynamido)cyclohex-1-en-1-yl)-3-chloro-5-fluoro-2-methyl-1H-indole-7-carboxamide]
< 8330 M⁻¹ s⁻¹ | 1 to 10 nM | CC#CC(=O)N[C@H]1CCC[C@@H](c2c(F)cc(C(N)=O)c3[nH]c(C)c(Cl)c23)C1 [6-(1R,3S), 4-((1R,3S)-3-(but-2-ynamido)cyclohexyl)-3-chloro-5-fluoro-2-methyl-1H-indole-7-carboxamide]

Source: patent US12600698B2, “Kinase inhibitors” (Vidya Therapeutics, Inc., priority 2021, dated 2026)
